Laboratory results as given in patent US11046716B2, “Beta-lactamase inhibitors” (priority 2015, dated 2021).

Key:
OXA-48 = OXA-48 (UniProt Q6XEC0); test: β-lactamase enzyme inhibition assay, Class D oxacillinase; type: biochemical; settings: read-out: OXA-48
AmpC = target: T1, AmpC (Enterobacter cloacae, UniProt P05364); test: β-lactamase enzyme inhibition assay, p99 AmpC (nitrocefin substrate); type: biochemical
T1 construct: made in house; host or cells: E. coli BL21(DE3)
Procedure: (§1) For SHV-5, Kpc-2, p99AmpC and OXA-1 β-lactamases, E. coli BL21(DE3) bacterial cells carrying expression plasmids (expressed as native untagged proteins) for the individual β-lactamases were grown in 1 L of Superbroth (Teknova Inc. Hollister, Calif.) supplemented with 100 μg/ml kanamycin selection and 1×5052 (0.5% glycerol, 0.05% glucose and 0.2% α-lactose) at 35° C. for 18-20 hours. Cells were harvested by centrifugation (4,000×g, 4° C., 20 min), resuspended in 50 ml of 10 mM HEPES pH 7.5 ( 1/20 of the initial volume). The cells were lysed by sonication (5 pulses of 45 seconds) at 45 W on ice. The lysates were clarified by centrifugation at 10,000×g for 40 minutes at 4° C. Samples were diluted 5-fold in 50 mM sodium acetate pH 5.0, stored overnight at 4° C., after which they were centrifuged at 10,000×g for 30 minutes to clarify, and filtered through 0.45 μm filters. The samples were loaded onto a 5 ml Capto S sepharose cation exchange column (GE Healthcare) pre-equilibrated with 50 mM sodium acetate pH 5.0. The column was washed with 5 column volumes of 50 mM sodium acetate pH 5.0 to wash out unbound protein and a linear gradient of NaCl (0 to 500 mM) was used to elute the protein (over 16 CV) from the column. Fractions were assayed for β-lactamase activity using Centa (Calbiochem, Gibbstown, N.J.) or Nitrocefin (EMD Millipore chemicals, Darmstadt, Germany) as a reporter β-lactamase substrate for activity in the isolated fractions. Active fractions were pooled, concentrated and further purified by gel filtration chromatography on a Superdex 75 prep grade gel filtration column (GE Healthcare, Piscataway, N.J.) pre-equilibrated in 50 mM Hepes pH 7.5, 150 mM NaCl. Active fractions were pooled concentrated, quantitated by BCA protein determination (Thermo Scientific, Rockford, Ill.), dialyzed into PBS and frozen at −80° C. in 20% glycerol until use.
(§2) An equal volume of diluted enzyme stock was added, and the plates were incubated at 37° C. for 15 min. Nitrocefin was used as substrate for p99 AmpC, VIM-2 and OXA-1 and dispensed into each well at a final concentration of 100 μM. Absorbance at 486 nm was immediately monitored for 10 min using a Biotek Powerwave XS2 microplate spectrophotometer using the GEN5 software package (Biotek Instruments, Winooski Vt.). In an analogous fashion, imipenem was used as substrate for Kpc-2 and Cefotaxime was used for SHV-5, while changes in absorbance upon hydrolysis of the β-lactam ring were monitored at 300 nm and 260 nm respectively in UV-transparent 96-well microtiter assay plates. Maximum rates of hydrolysis were compared to those in control wells (without inhibitors), and percentages of enzyme inhibition were calculated for each concentration of inhibitor. The concentration of inhibitor needed to reduce the initial rate of hydrolysis of substrate by 50% (IC50) was calculated as the residual activity of β-lactamase at 486 nm using GraFit version 7 kinetics software package (Erithacus Software, Surrey, UK).
(§3) Using the methodology described above, examples of the current invention were evaluated for their ability to inhibit β-lactamase enzymes from all four Ambler classifications (A through D). […] NT=Not tested.

[1] = tested on: E. cloacae expressing the Class C P99; test: Broth microdilution MIC assay with ceftazidime, E. cloacae P99; type: cell-based; settings: Fixed CAZ (ceftazidime) 4 μg/mL; E. cl. 144200 p99 AmpC
Excerpt: (§4) To determine the ability of test compounds to potentiate the inhibition of the growth of bacterial strains that produce beta-lactamase enzymes in the presence of a β-lactam antibiotic, classic cell based broth microdilution MIC assays were employed. Six bacteria strains producing beta-lactamase enzymes were used: E. coli expressing the Class A Extended Spectrum Beta-Lactamase (ESBL) CTX-M-15, E. cloacae expressing the Class C P99, K. pneumoniae expressing the Class A carbapenemase KPC-2, P. aeruginosa expressing the Class B carbapenemase VIM-2, K. pneumoniae expressing the class A carbapenemase KPC-2 and the class B carbapenemase VIM-4, and K. pneumoniae producing the Class D carbapenemase OXA-48. The assay was conducted in Cation Adjusted Mueller Hinton Broth (CAMHB, BD #212322, BD Diagnostic Systems, Sparks, Md.). Bacteria strains were grown for 3-5 hours in CAMBH broth. Test compounds (Examples 1-94) were added to a microtiter plate in 2-fold serial dilutions in CAMHB in a final concentration range of 16 μg/mL to 0.125 μg/ml. An overlay of CAMHB containing a Beta-lactam was added to the compounds at a final static concentration of 4 μg/ml. […] In addition to the titration of test compounds the MICs of a panel of control beta-lactams is also tested to ensure the strains are behaving consistently from test to test. Once the test compound and antibiotics are added the plates can be inoculated according to CLSI broth microdilution method. After inoculation the plates are incubated for 16-20 hours at 37° C. then the Minimal Inhibitory Concentration (MIC) of the test compound is determined visually.
(§5) Using the methodology described above, examples of the current invention were evaluated for their ability to inhibit the growth of β-lactamase-producing bacteria in the presence of a β-lactam antibiotic.

[2] = tested on: K. pneumoniae producing the Class D carbapenemase OXA-48; test: Broth microdilution MIC assay with meropenem, K. pneumoniae OXA-48; type: cell-based; settings: Fixed Mero (meropenem) 4 μg/mL; K. p. 11978 OXA-48
Excerpt: as §4, §5

[3] = tested on: E. coli expressing the Class A Extended Spectrum Beta-Lactamase (ESBL) CTX-M-15; test: Broth microdilution MIC assay with ceftazidime, E. coli CTX-M-15; type: cell-based; settings: Fixed CAZ (ceftazidime) 4 μg/mL; E. coli ESBL4 CTX-M-15
Excerpt: as §4, §5

SHV-5 = target: T2, SHV-5 (Klebsiella pneumoniae, UniProt P0A3M1); test: β-lactamase enzyme inhibition assay, SHV-5 (cefotaxime substrate); type: biochemical
T2 construct: made in house; host or cells: E. coli BL21(DE3)
T2 sequence (P0A3M1 22-286): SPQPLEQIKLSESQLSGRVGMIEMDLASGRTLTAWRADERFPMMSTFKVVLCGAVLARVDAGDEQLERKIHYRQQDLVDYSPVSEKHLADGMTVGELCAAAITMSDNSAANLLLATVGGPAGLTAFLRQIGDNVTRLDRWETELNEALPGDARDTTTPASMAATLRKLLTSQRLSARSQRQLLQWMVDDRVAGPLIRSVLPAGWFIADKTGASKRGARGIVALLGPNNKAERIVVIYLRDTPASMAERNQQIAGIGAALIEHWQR
Procedure: as §1, §2, §3

VIM-2 = target: T3, VIM-2 (Escherichia coli, UniProt Q5U7L7); test: β-lactamase enzyme inhibition assay, VIM-2 (nitrocefin substrate); type: biochemical; settings: Class B; nitrocefin substrate, 486 nm; read-out: VIM-2
T3 construct: made in house; host or cells: E. coli BL21(DE3)
Procedure: For Vim-2 metallo β-lactamase, the procedure was identical with the following exceptions, first the protein was not pH adjusted to pH 5 with 50 mM sodium acetate, second, the chromatography step was changed to a 5 ml Q sepharose anion exchange column pre-equilibrated with 50 mM Hepes pH 7.5, and elution of the protein was achieved by a linear gradient of NaCl (0-600 mM). Finally, the VIM-2 purification required a second run (3rd step) on the Q sepharose anion exchange column to achieve acceptable purity (>90%).
as §2, §3

KPC-2 = target: T4, KPC-2 (Klebsiella pneumoniae, UniProt Q9F663); test: β-lactamase enzyme inhibition assay, KPC-2 (imipenem substrate); type: biochemical; settings: Class A; imipenem substrate, 300 nm; read-out: KPC-2
T4 construct: made in house; host or cells: E. coli BL21(DE3)
T4 sequence (Q9F663 25-293, looked up): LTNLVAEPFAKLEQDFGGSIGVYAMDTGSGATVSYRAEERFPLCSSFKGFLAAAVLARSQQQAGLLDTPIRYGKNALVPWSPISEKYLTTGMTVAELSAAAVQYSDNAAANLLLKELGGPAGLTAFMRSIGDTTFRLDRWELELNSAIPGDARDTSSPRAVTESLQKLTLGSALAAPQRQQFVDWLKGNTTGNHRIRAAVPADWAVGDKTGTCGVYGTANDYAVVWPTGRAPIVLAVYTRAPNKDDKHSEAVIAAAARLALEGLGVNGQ
Procedure: as §1, §2, §3

[4] = tested on: K. pneumoniae expressing the Class A carbapenemase KPC-2; test: Broth microdilution MIC assay with meropenem, K. pneumoniae KPC-2; type: cell-based; settings: Fixed Mero (meropenem) 4 μg/mL; K. p. 156319 KPC-3
Excerpt: as §4, §5

[5] = tested on: K. pneumoniae expressing the class A carbapenemase KPC-2 and the class B carbapenemase VIM-4; test: Broth microdilution MIC assay with meropenem, K. pneumoniae KPC-2 and VIM-4; type: cell-based; settings: Fixed Mero (meropenem) 4 μg/mL; K. p. A-1797 KPC-2 VIM-4
Excerpt: as §4, §5

[6] = tested on: P. aeruginosa expressing the Class B carbapenemase VIM-2; test: Broth microdilution MIC assay with meropenem, P. aeruginosa VIM-2; type: cell-based; settings: Fixed Mero (meropenem) 4 μg/mL; P. aerug. 2775 VIM-2
Excerpt: as §4, §5

T1 sequence (P05364 21-381): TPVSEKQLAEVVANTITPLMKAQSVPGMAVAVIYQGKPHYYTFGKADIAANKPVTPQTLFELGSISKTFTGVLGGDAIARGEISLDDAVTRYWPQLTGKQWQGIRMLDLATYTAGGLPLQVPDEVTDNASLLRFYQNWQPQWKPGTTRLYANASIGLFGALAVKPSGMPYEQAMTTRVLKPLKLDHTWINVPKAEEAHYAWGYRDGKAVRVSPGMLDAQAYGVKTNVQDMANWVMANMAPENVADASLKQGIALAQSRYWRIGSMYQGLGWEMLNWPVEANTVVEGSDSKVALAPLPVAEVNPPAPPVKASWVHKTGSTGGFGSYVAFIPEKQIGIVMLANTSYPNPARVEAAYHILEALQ

Row | Structure (SMILES) | IC50 (OXA-48) [nM] | IC50 (AmpC) [nM] | MIC (μg/mL) of Exemplary Compounds in presence of fixed β-lactams: E. cl. 144200 p99 AmpC [1] | MIC (μg/mL) of Exemplary Compounds in presence of fixed β-lactams: K. p. 11978 OXA-48 [2] | MIC (μg/mL) of Exemplary Compounds in presence of fixed β-lactams: E. coli ESBL4 CTX-M-15 [3] | IC50 (SHV-5) [nM] | IC50 (VIM-2) [nM] | IC50 (KPC-2) [nM] | MIC (μg/mL) of Exemplary Compounds in presence of fixed β-lactams: K. p. 156319 KPC-3 [4] | MIC (μg/mL) of Exemplary Compounds in presence of fixed β-lactams: K. p. A-1797 KPC-2 VIM-4 [5] | MIC (μg/mL) of Exemplary Compounds in presence of fixed β-lactams: P. aerug. 2775 VIM-2 [6]
1 | O=C(Cn1cc(-c2ccccn2)nn1)N[C@H]1Cc2cccc(C(=O)O)c2OB1O [Example 10, (R)-2-hydroxy-3-(2-(4-(pyridin-2-yl)-1H-1,2,3-triazol-1-yl)acetamido)-3,4-dihydro-2H-benzo[e][1,2]oxaborinine-8-carboxylic acid] | < 100 | < 100 | C (C represents an MIC of <1 μg/mL) | B (B represents an MIC between 1 and 16 μg/mL inclusive) | C (C represents an MIC of <1 μg/mL) | < 100 | 1000 to 10000 | < 100 | B (B represents an MIC between 1 and 16 μg/mL inclusive) | A (A represents an MIC>16 μg/mL) | –
2 | NCc1nnnn1CC(=O)N[C@H]1Cc2cccc(C(=O)O)c2OB1O [Example 17, (R)-3-(2-(5-(aminomethyl)-1H-tetrazol-1-yl)acetamido)-2-hydroxy-3,4-dihydro-2H-benzo[e][1,2]oxaborinine-8-carboxylic acid] | 100 to 1000 | – | C (C represents an MIC of <1 μg/mL) | B (B represents an MIC between 1 and 16 μg/mL inclusive) | C (C represents an MIC of <1 μg/mL) | – | < 100 | < 100 | B (B represents an MIC between 1 and 16 μg/mL inclusive) | B (B represents an MIC between 1 and 16 μg/mL inclusive) | C (C represents an MIC of <1 μg/mL)
3 | O=C(Cn1cncn1)N[C@H]1Cc2cccc(C(=O)O)c2OB1O [Example 18, (R)-3-(2-(1H-1,2,4-triazol-1-yl)acetamido)-2-hydroxy-3,4-dihydro-2H-benzo[e][1,2]oxaborinine-8-carboxylic acid] | 1000 to 10000 | – | C (C represents an MIC of <1 μg/mL) | B (B represents an MIC between 1 and 16 μg/mL inclusive) | C (C represents an MIC of <1 μg/mL) | – | 100 to 1000 | < 100 | C (C represents an MIC of <1 μg/mL) | B (B represents an MIC between 1 and 16 μg/mL inclusive) | B (B represents an MIC between 1 and 16 μg/mL inclusive)
4 | Cc1nnn(CC(=O)N[C@H]2Cc3cccc(C(=O)O)c3OB2O)c1CN [Example 120, (R)-3-(2-(5-(aminomethyl)-4-methyl-1H-1,2,3-triazol-1-yl)acetamido)-2-hydroxy-3,4-dihydro-2H-benzo[e][1,2]oxaborinine-8-carboxylic acid] | < 100 | < 100 | C (C represents an MIC of <1 μg/mL) | B (B represents an MIC between 1 and 16 μg/mL inclusive) | C (C represents an MIC of <1 μg/mL) | 100 to 1000 | < 100 | < 100 | B (B represents an MIC between 1 and 16 μg/mL inclusive) | B (B represents an MIC between 1 and 16 μg/mL inclusive) | –
